According to patent publication US20120251495A1, “PTERIN BASED THERAPIES FOR INFLAMMATORY CONDITIONS” (priority 2008, published 2012):

Legend:
[1] = tested on: MDA-MB-231 human breast tumor xenographs; assay: Antitumor efficacy in nude mice with MDA-MB-231 xenographs, 2nd experiment; assay type: in vivo, athymic nude mice
Protocol: In the 2nd experiment, twenty-nine athymic nude, also purchased from Harlan Sprague Dawley, Inc. (Indianapolis, Ind.), were each injected subcutaneously with 10×10^6 MDA-MB-231 cancer cells into the right flank. When tumors reached 3-5 mm in size, the mice were divided into five treatment groups of five each and a control group of four mice. […] All the other mice in the 2nd experiment persisted ≧43 days without complications. Experimental groups were treated by oral gavage once daily with the indicated test suspensions or solutions.
The control mice in the 1st experiment were treated with sterile water while the control mice in the 2nd experiment were untreated to evaluate the effect of mouse handling and gavaging upon tumor growth. Daily dosing was for 7 days per week. Animals were restrained but not anesthetized for oral dosing. Tumors were measured twice weekly with calipers and body weights taken twice weekly on the day of tumor measurements. Blood was collected from all animals via cardiac puncture at termination (after 70 to 98 days of treatment) and processed to EDTA plasma for analysis.
The MDA-MB-231 human breast tumor cell lines were supplied by SRI International (Menlo Park, Calif.) and propagated using standard in vitro cell expansion methods. Briefly, cells were grown in L-15 media from Gibco (Cat. No. 11415-064) supplemented with 2 mM L-Glutamine and 10% Fetal Bovine Serum (FBS). The cells were cultured in an incubator with 5% CO2, 37.5° C., and 80% humidity. Cells were harvested with 0.25% (w/v) Trypsin-0.03% (w/v) EDTA solution. Cells were prepared for injection by standard methods to appropriate concentrations. Animals were temporarily restrained but not anesthetized for the inoculation of the tumor cells. Animals were subcutaneously injected with the tumor cells in a 100-200 μl volume.
Each animal was individually tracked for tumor growth by external caliper measurements of protruding tumor. Primary tumor sizes were measured using calipers and an approximate tumor volume calculated using the formula 1/2 (a×b^2), where b was the smaller of two perpendicular diameters.
For each group, the mean and standard error of the mean (SEM) of the ratio V/Vo, Relative Tumor Volume (RTV), were plotted as a function of treatment time after inoculation. V0 was the tumor volume at Day 0, when treatment began.

plasma cytokines = assay: Plasma cytokine levels (multiplex and single ELISA kits), 2nd experiment; assay type: in vivo, athymic nude mice; details: for IL-5: limit of detection 3.0; for IFN-γ / IL-4 / IL-12: limit of detection 3.2; for IL-6: limit of detection 3.9; for IL-1β: limit of detection 4.1
Protocol: Cytokine levels in EDTA plasma from the mice in the 2nd experiment were measured at the UCSD Core Laboratory (San Diego, Calif.) using a multiplex assay kit for IL-1β, IL-2, IL-4, IL-5, IL-10, IL-12, IFN-γ, TNF-α and single ELISA kits for IL-6 and TGF-β1 by R&D Systems. […] For both the 1st and 2nd experiments, those measured cytokine values falling below the limits of detection were set to the higher assay limit for the purposes of the subsequent statistical analyses, and recorded as n.d. (not detectable) in Tables 1 through 3.

IDO [2] = biological target: T1, IDO (Homo sapiens, UniProt P14902); assay: IDO inhibition in vitro with human PBMCs (kynurenine production); assay type: cell-based
T1 construct: endogenous in cells; host or cells: human PBMCs (peripheral blood mononuclear cells), unstimulated or PHA-stimulated
T1 sequence (P14902 whole entry): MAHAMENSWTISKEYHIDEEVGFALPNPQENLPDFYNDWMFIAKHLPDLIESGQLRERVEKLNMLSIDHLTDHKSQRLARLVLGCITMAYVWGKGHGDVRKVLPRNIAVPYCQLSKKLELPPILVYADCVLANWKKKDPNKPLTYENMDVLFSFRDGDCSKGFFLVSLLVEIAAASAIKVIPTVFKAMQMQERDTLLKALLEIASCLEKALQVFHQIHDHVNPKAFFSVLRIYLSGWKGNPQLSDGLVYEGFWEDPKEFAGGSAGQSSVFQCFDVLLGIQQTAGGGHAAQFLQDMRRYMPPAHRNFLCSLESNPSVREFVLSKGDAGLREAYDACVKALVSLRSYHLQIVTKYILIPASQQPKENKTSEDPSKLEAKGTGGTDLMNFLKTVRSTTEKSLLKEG
Protocol: The purpose of this in vitro study was to measure the IC50 values of IDO in PBMCs for 1) calcium pterin, CaCl2, and pterin to determine measurable synergistic effects between Ca^+2 and pterin, and 2) to compare these values with those of DCP for the assessment of relative IDO inhibitory strength. IC50 (μM) values for IDO inhibition by (1:4 mol:mol) calcium pterin, DCP, CaCl2, and pterin were determined in vitro with human PBMCs (both PHA-stimulated and unstimulated) by measuring kynurenine production as previously described (Winkler et al., 2006).

[3] = Theoretical body fluid level calculated from dose; details: 69 mg/kg ÷ 0.7 L/kg ÷ 454.4 mg/mmol; mouse
Protocol: DCP at the highest dose tested in mice in this study, 69 mg/kg, yields the following theoretical body fluid level: [DCP]fluid=69 mg/kg÷0.7 L/kg÷454.4 mg/mmol=220 μM.

hepatitis B virus (HBV) = assay: Liver HBV DNA by Southern blot hybridization in HBV transgenic mice; assay type: in vivo
From the text: Animals. Homozygous adult female and male transgenic HBV mice were used (20.6±2.8 g). The mice were originally obtained from Dr. Frank Chisari (Scripps Research Institute, La Jolla, Calif.) (Guidotti L G, Matzke B, Schaller H & Chisari F V. High-level hepatitis B virus replication in transgenic mice. J Virol 1995; 69:6158-6169) and were subsequently raised in the Biosafety Level 3 (BL-3) area of the AAALAC-accredited USU Laboratory Animal Research Center (LARC). The animals were derived from founder 1.3.32 (Guidotti L G, Matzke B, Schaller H & Chisari F V. High-level hepatitis B virus replication in transgenic mice. J Virol 1995; 69:6158-6169). This study was conducted in accordance with the approval of the Institutional Animal Care and Use Committee of Utah State University.
(§1) Experimental design. DCP was administered per os, once daily for 14 days to randomly assigned HBV transgenic mice at 23, 7.3, and 2.3 mg/(kg d). ADV was used as a positive control at 10 mg/(kg d) using the same treatment schedule and vehicle (0.4% CMC). On day 14, mice were euthanized to collect serum and liver samples to perform liver HBV DNA, liver core and serum HBe assays, serum cytokine/chemokine profiles, and IDO metabolite assays.
Liver HBV DNA assays. Southern blot hybridization and quantitative PCR (qPCR) were performed on liver tissues (Morrey J D, Motter N E, Tam B, Lay M & Fairman J. Efficacy of cationic lipid-DNA complexes (CLDC) on hepatitis B virus in transgenic mice. Antiviral Res 2008; 79:71-79). For Southern blot hybridization, the ratio of the viral DNA bands to the transgene band was used to determine the concentration of viral DNA per host DNA. This calculation was based upon the knowledge that there were 1.3 copies of the transgene present per host cell with this line of transgenic mice. The transgene was used as an internal indicator to calculate the pg of HBV DNA per μg of homozygous cellular host DNA. For qPCR, the assay was run with a series of 10-fold dilutions of pooled liver DNA from HBV transgenic mice to obtain a standard curve. Mean C(t) values were obtained for duplicates of each sample. The mean C(t) values of each sample were used to obtain the log relative DNA values using a formula of the fit line of the standard curve.

IDO [4] = assay: Serum tryptophan and kynurenine in HBV transgenic mice; assay type: in vivo
Protocol: as §1
Tryptophan and kynurenine measurements. Tryptophan (Trp) and kynurenine (Kyn) measurements were carried out as previously described (Widner B, Werner E R, Schennach H, Wachter H & Fuchs D. Simultaneous measurement of serum tryptophan and kynurenine by HPLC. Clin Chem 1997; 43:2424-2426). Kyn/Trp ratios were calculated for each mouse as an estimate of IDO activity.

[5] = tested on: indoleamine 2,3-dioxygenase (IDO); assay: Plasma tryptophan and kynurenine by HPLC (IDO activity), 1st experiment; assay type: in vivo, athymic nude (nu/nu) mice; details: for Kynurenine / Tryptophan / Kyn/Trp: plasma; for Kynurenine / Tryptophan: HPLC; for Kyn/Trp: estimate of IDO activity
Protocol: Cytokine levels in EDTA plasma from the mice in the 1st experiment were determined by ELISA assay at Alta Analytical Laboratories (San Diego, Calif.) using a LINCOplex Kit (Linco Research). Tryptophan (Trp) and kynurenine (Kyn) concentrations were measured from EDTA plasma samples by high pressure liquid chromatography (HPLC) using 3-nitro-L-tyrosine as the internal standard (Widner et al., 1997). To estimate IDO activity, the kynurenine to tryptophan ratio (Kyn/Trp) was calculated and expressed as μmol kynurenine/mmol tryptophan (Wirleitner, 2003). The values from five mice in the 1st experiment are not included in the summary statistics given in Table 1 for the following reasons. One mouse from each of the four treatment groups was used to test the effects of mega dosing, i.e., with (1:4 mol:mol) calcium pterin at 100 mg/kg/day after Day 60 of treatment, and are excluded. Also excluded was one mouse from the (1:4 mol:mol) calcium pterin (7 mg/kg/day) group which expired suddenly a few days before blood was collected. Cytokine measurements <3.2 pg/ml are reported as n.d. (not detectable) because the standard curves used in the ELISA assays were not calibrated below that level.

[6] = HBV mice generally, 2.3-23.0 mg/(kg day)

Compound: Nc1nc([O-])c2nccnc2n1.Nc1nc([O-])c2nccnc2n1.[Ca+2] [DCP, dipterinyl calcium pentahydrate]
- MDA-MB-231 xenograph growth inhibition ([1]; (1:2) 25, DCP 23 and 69, calcium chloride dihydrate 4.2 mg/kg/day): significantly inhibit
- IL-5 (plasma cytokines; 2nd experiment, 23 mg/kg/d): 20.3 ± 10.2 pg/mL
- IFN-γ (plasma cytokines; 2nd experiment, 23 mg/kg/d): 15.2 ± 4.9 pg/mL
- IL-4 (plasma cytokines; 2nd experiment, 23 mg/kg/d): 5.7 ± 1.7 pg/mL
- IL-12 (plasma cytokines; 2nd experiment, 23 mg/kg/d): 1141.7 ± 327.1 pg/mL
- IL-6 (plasma cytokines; 2nd experiment, 23 mg/kg/d): 49.6 ± 18.5 pg/mL
- IL-1β (plasma cytokines; 2nd experiment, 23 mg/kg/d): 6.2 ± .8 pg/mL
- IL-2 (plasma cytokines; 2nd experiment, 23 mg/kg/d, limit of detection 12.6): 12.7 ± .11 pg/mL
- IL-10 (plasma cytokines; 2nd experiment, 23 mg/kg/d, limit of detection 24.6): 37.0 ± 12.4 pg/mL
- IL-5 (plasma cytokines; 2nd experiment, 69 mg/kg/d): 24.9 ± 17.0 pg/mL
- IFN-γ (plasma cytokines; 2nd experiment, 69 mg/kg/d): 29.9 ± 18.0 pg/mL
- IL-4 (plasma cytokines; 2nd experiment, 69 mg/kg/d): 4.0 ± .6 pg/mL
- IL-12 (plasma cytokines; 2nd experiment, 69 mg/kg/d): 1050.52 ± 238.7 pg/mL
- IL-6 (plasma cytokines; 2nd experiment, 69 mg/kg/d): 37.0 ± 11.3 pg/mL
- IL-1β (plasma cytokines; 2nd experiment, 69 mg/kg/d): 5.3 ± .7 pg/mL
- TGF-β1 (plasma cytokines; 2nd experiment, 69 mg/kg/d, limit of detection 31.2): 49.5 ± 18.3 pg/mL
- IC50 (IDO [2]; PHA stimulated per Table 3): 320 µM
- IC50 (IDO [2]; unstimulated per Table 3): 470 µM
- theoretical body fluid level [DCP]fluid [3]: 220 µM
- Liver HBV DNA (Southern), Female levels (mean ± SEM) (hepatitis B virus (HBV); 2.3 mg/(kg d)): 12.7 ± 1.9 pg/µg
- Liver HBV DNA (Southern), Female levels (mean ± SEM) (hepatitis B virus (HBV); 7.3 mg/(kg d)): 17.3 ± 3.5 pg/µg
- Liver HBV DNA (Southern), Female levels (mean ± SEM) (hepatitis B virus (HBV); 23.0 mg/(kg d)): 10.6 ± 1.6 pg/µg
- Liver HBV DNA (Southern), Male levels (mean ± SEM) (hepatitis B virus (HBV); 2.3 mg/(kg d)): 46.4 ± 10.8 pg/µg
- Liver HBV DNA (Southern), Male levels (mean ± SEM) (hepatitis B virus (HBV); 7.3 mg/(kg d)): 50.4 ± 10.3 pg/µg
- Liver HBV DNA (Southern), Male levels (mean ± SEM) (hepatitis B virus (HBV); 23.0 mg/(kg d)): 36.0 ± 10.6 pg/µg
- serum Kyn (IDO [4]; [6]): did not affect
- serum Kyn/Trp (IDO [4]; [6]): did not affect
- serum tryptophan (Trp) versus controls (IDO [4]; male HBV mice, 23.0 mg/(kg day)): significantly increased

Compound: (1:4 mol:mol) calcium pterin [CaPterin]
- T/C ([1]; 21 mg/kg/day, after 43 days): 37%
- IL-5 (plasma cytokines; 2nd experiment, 21 mg/kg/d): 8.2 ± 1.4 pg/mL
- IFN-γ (plasma cytokines; 2nd experiment, 21 mg/kg/d): 6.2 ± 2.4 pg/mL
- IL-12 (plasma cytokines; 2nd experiment, 21 mg/kg/d): 721.6 ± 19.1 pg/mL
- IL-1β (plasma cytokines; 2nd experiment, 21 mg/kg/d): 5.0 ± .7 pg/mL
- IL-6 (plasma cytokines; 2nd experiment, 21 mg/kg/d, plasma at sacrifice): 30.3 ± 10.2 pg/mL
- increases in plasma IL-12 (FIG. 10) (plasma cytokines; at the dosages tested): lower, non-significant increases
- Kynurenine ([5]; 7 mg/kg/day): 1.2 ± 0.2 µM
- Tryptophan ([5]; 7 mg/kg/day): 87.9 ± 14.6 µM
- Kyn/Trp ([5]; 7 mg/kg/day): 14.1 ± 0.2 μmol/mmol
- Kynurenine ([5]; 21 mg/kg/day): 1.8 ± 0.3 µM
- Tryptophan ([5]; 21 mg/kg/day): 106.5 ± 7.8 µM
- Kyn/Trp ([5]; 21 mg/kg/day): 17.5 ± 3.8 μmol/mmol
- plasma kynurenine response to dosage (ACIP model) ([5]; stepwise regression): increase
